# ± gives the standard deviation of the averaged measurements.
# How the values were obtained:
# S462 [1] = test: drug sensitivity score (DSS, CellTiter-Glo viability, 72 h) (DSS (dimensionless)); higher = more sensitive; extreme values may be limits of the assay
# Method in brief: (§1)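 MPNST cell lines and primary human Schwann cells (750–1000 cells per well) went into 384-well plates preprinted with each compound at five concentrations in 10-fold steps. Plates were incubated 72 h at 37 °C, 5% CO2. Viability was read as CellTiter-Glo ATP luminescence, scaled between vehicle and positive-control wells, with duplicates averaged where present. Percent inhibition is at the top concentration; drug sensitivity score and relative IC50 (censored at top concentration) come from four-parameter logistic fits.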
# ST8814 [2] = test: as above
# Method in brief: as §1
# [3] = system: HSC1 (primary human Schwann cells); test: as above
# Method in brief: as §1
# YST-1 [4] = test: as above
# Method in brief: as §1
# [5] = system: HSC2 (primary human Schwann cells); test: as above
# Method in brief: as §1
# STS26T [6] = test: as above
# Method in brief: as §1
# HS-PSS [7] = test: as above
# Method in brief: as §1
# S1507-2 [8] = test: as above
# Method in brief: as §1
# HS-Sch-2 [9] = test: as above
# Method in brief: as §1
# S462 [10] = test: % inhibition of CellTiter-Glo viability at highest tested concentration (72 h), relative to DMSO and benzethonium chloride controls; higher = more inhibition
# Method in brief: as §1
# ST8814 [11] = test: as above
# Method in brief: as §1
# [12] = system: HSC1 (primary human Schwann cells); test: as above
# Method in brief: as §1
# YST-1 [13] = test: as above
# Method in brief: as §1
# [14] = system: HSC2 (primary human Schwann cells); test: as above
# Method in brief: as §1
# STS26T [15] = test: as above
# Method in brief: as §1
# HS-PSS [16] = test: as above
# Method in brief: as §1
# S1507-2 [17] = test: as above
# Method in brief: as §1
# HS-Sch-2 [18] = test: as above
# Method in brief: as §1
# ST8814 [19] = test: drug sensitivity score (DSS, CellTox-Green cytotoxicity, 72 h) (DSS (dimensionless)); higher = more cytotoxic; extreme values may be limits of the assay
# Method in brief: (§2)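 MPNST cell lines and primary human Schwann cells were incubated 72 h at 37 °C in 384-well plates holding five 10-fold compound dilutions. CellTox-Green was added before seeding at a final 1:1000 dilution and reported fluorescence from DNA released by disrupted cells. Signals were scaled to vehicle and positive-control wells, and cultures failing plate quality control were dropped. Drug sensitivity score and relative IC50 come from four-parameter logistic fits, with IC50 censored at the top concentration.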
# [20] = system: HSC1 (primary human Schwann cells); test: as above
# Method in brief: as §2
# [21] = system: HSC2 (primary human Schwann cells); test: as above
# Method in brief: as §2
# STS26T [22] = test: as above
# Method in brief: as §2
# HS-PSS [23] = test: as above
# Method in brief: as §2
# S1507-2 [24] = test: as above
# Method in brief: as §2
SMILES,drug sensitivity score (S462 [1]),drug sensitivity score (ST8814 [2]),drug sensitivity score [3],drug sensitivity score (YST-1 [4]),drug sensitivity score [5],drug sensitivity score (STS26T [6]),drug sensitivity score (HS-PSS [7]),drug sensitivity score (S1507-2 [8]),drug sensitivity score (HS-Sch-2 [9]),% inhibition (S462 [10]) [%],% inhibition (ST8814 [11]) [%],% inhibition [12] [%],% inhibition (YST-1 [13]) [%],% inhibition [14] [%],% inhibition (STS26T [15]) [%],% inhibition (HS-PSS [16]) [%],% inhibition (S1507-2 [17]) [%],% inhibition (HS-Sch-2 [18]) [%],drug sensitivity score (ST8814 [19]),drug sensitivity score [20],drug sensitivity score [21],drug sensitivity score (STS26T [22]),drug sensitivity score (HS-PSS [23]),drug sensitivity score (S1507-2 [24])
Cc1cc(C(C)Nc2ccccc2)c2nc(N3CCOCC3)cc(=O)n2c1 (centres undefined) [TGX-221] (max concentration tested 10000 nM),0.122 ± 0.17,1.34,0.168,0.99,0,4.31,0,3.32 ± 0.24,0.19,7.98 ± 6.7,21.4,16.5,26.6,6.57,41.7,-2.49,28.4 ± 7.1,12.3,0,0,0,0.376,0,0
CCNC(=O)CCC/C=C\C[C@@H]1[C@@H](/C=C/[C@@H](O)CCc2ccccc2)[C@H](O)C[C@@H]1O [Bimatoprost] (max concentration tested 5500 nM),0.502 ± 0.71,0,0,0,0,0,0.89,0.00145 ± 0.0021,0.89,9.55 ± 12,2.33,2.26,7.41,9.6,7.31,-11.6,0.42 ± 0.85,-3.66,0,0,0,0,0.89,0
Cc1cc2c(C(C)C)c(O)c(O)c(C=O)c2c(O)c1-c1c(C)cc2c(C(C)C)c(O)c(O)c(C=O)c2c1O [AT 101] (max concentration tested 100000 nM),16 ± 1.1,12.6,16.2,15.2,20.2,11.8,9.43,8.69 ± 1.2,15.1,95.03 ± 0.8,95.4,94.7,101,93.6,96.6,101,95.6 ± 1.6,101,0.0013,4.09,0,0,2.34,0
COc1ccc(C2=N[C@@H](c3ccc(Cl)cc3)[C@@H](c3ccc(Cl)cc3)N2C(=O)N2CCNC(=O)C2)c(OC(C)C)c1 [Nutlin-3] (max concentration tested 10000 nM),0,4.66,5.97,9.36,7.69,0.0084,1.69,0.283 ± 0.4,0,5.05 ± 4.8,59.7,62.4,94.8,71.8,12.2,24.9,7.98 ± 12,1.38,0.0128,0,0,0,0,1.97 ± 2.8
Nc1nccc(-c2c(-c3ccc(F)cc3)ncn2C2CCCCC2)n1 (max concentration tested 10000 nM),0,0,0,3.26,0,0,0.55,0,0.99,-4.31 ± 12,5.9,9.97,33.7,-0.333,1.02,21.5,2.64 ± 7.6,29.1,0,0,0,0,0,0
O=C(O)CNC(=O)c1c(O)c2ccccc2n(Cc2ccccc2)c1=O [IOX-2] (max concentration tested 50000 nM),0.3 ± 0.38,2.35,0,0.01,1.03,0.326,5.08,1.81 ± 1.5,6.06,12.2 ± 1.9,30.5,9.77,12,20.2,16.4,65,26.3 ± 12,89,0.888,0,0,0,0,0
